Data taken from US20100279941A1, “CD36 MODULATION AND USES THEREOF” (priority 2009, published 2010).
Numbered stars: 1 amine (or outer) side, 2 acyl side, 3 side chain; on linkers, the order of the positions; unused ones are H or OH. Square brackets hold non-standard residues; d marks the D form. Peptide text beside a SMILES is read from it. azaPhe = O=C(N(Cc1ccccc1)N[*:1])[*:2]; azaPro = O=C(N1CCCN1[*:1])[*:2]

Legend:
Type in all cases: in vivo
[1] = system: CD36^+/+ and CD36^−/− mice; experiment: Area at risk and infarct size after 30-min LCAL and 48 hours reperfusion (Evans blue/TTC)
From the text: Animals. CD36^−/− mice were generated by targeted homologous recombination and backcrossed six times to C57BI/6. Wild-type control littermates (CD36^+/+) were bred from the same cross and were therefore of identical genetic background [Febbraio et al., 2000]. Male mice, aged 23 (±1) weeks, were used for experiments. They were fed standard chow (#5075, Charles Rivers, Saint-Constant, Québec, Canada) and water ad libitum, and housed singly during treatment periods (2 or 10 weeks). Daily pharmacological treatments with 300 μg/kg of EP 80317 or CP1A(IV) or vehicle (0.9% NaCl) were done by subcutaneous (s.c.) injections.
(§1) C57BU6 mice were bred in house. Male mice, aged 23 (±1) weeks, were used for experiments. They were fed standard chow (#5075, Charles Rivers, Saint-Constant, Québec, Canada) and water ad libitum, and housed singly during treatment periods (2 weeks). Daily pharmacological treatments with 300 μg/kg (289 nmol/kg) of EP 80317 or 289 nmol/kg of CP-3(IV), 289 nmol/kg of CP-AP-4 or vehicle (0.9% NaCl) were done by subcutaneous (s.c.) injections.
(§2) Experimental model of IHD: Transient left coronary artery ligation in vivo. Mice were subjected to a transient LCAL surgery as described before, with minor modifications [Tarnayski et al., 2004]. Mice were injected i.p. with buprenorphine (0.05 mg/kg) and placed in an induction chamber with inhalation anesthesia comprised of 3% isoflurane mixed with 100% oxygen. Mice were intubated with a blunt ended 20-gauge catheter into the trachea via the mouth and mechanically ventilated at a tidal volume of 7 ml/kg at 130 respirations/min with a MiniVent™ mouse ventilator (model 845, Harvard Apparatus, Saint-Laurent, QC, Canada). Anesthesia was maintained with 1.5-2% isoflurane and the animals were kept warm using electrical heating pads during the surgical procedure. The chest was opened by a horizontal incision through the skin and muscle layers at the third intercostal space exposing the left side of the heart. […] Visual blanching distal to the coronary occlusion confirmed myocardial ischaemia. Lidocaine (6 mg/kg) was administered i.p. just following occlusion and prior to reperfusion. After 30 minutes, the PE10 tubing was removed allowing reperfusion. The lungs were reinflated and the chest wound closed layer by layer before extubation. At 6 hours following reperfusion, mice were anesthetized (isoflurane), a blood sample withdrawn, and the heart arrested in diastole by an intravenous injection of 1 M KCl (0.5 mL). Hearts were immediately frozen at −80° C. unless otherwise stated.
Evaluation of area at risk and infarct size. Two days after reperfusion, the left anterior descending (LAD) coronary artery was re-occluded at the original site and the abdominal aorta was injected retrogradly with 5% Evans blue dye to delineate the AAR by the absence of dark blue staining. The left ventricle, including the interventricular septum, was dissected and cut into transverse 1-mm slices from the apex to the base, using an acrylic matrix (Alto Inc., Hatfield, Pa., USA). The slices were incubated in 1% triphenyltetrazolium chloride solution at 37° C. for 15 min and placed in 10% neutral buffered formalin for 12 hours. Each slice was weighed and photographed on both sides with a digital camera (Nikon, Coolpix™ 4500, Mississauga, Ontario, Canada). The total LV area, AAR and IA were determined for each side of a slice by planimetric analysis using Adobe CS3 Photoshop™ software (Ottawa, ON, Canada), and averaged. The infarct weight was determined as follows: [(A1×WT1)+(A2×WT2)+(A3×WT3)+(A4×WT4) . . . ] where A and WT are the infarct area and weight of the section, respectively. The AAR weight was calculated in a similar manner, but by subtracting the blue (viable) stained zone from the weight. The results are expressed in terms of % IA/AAR, IA/LV and AAR/LV.

C57BL/6 mice [2] = experiment: Blood lactate after transient ischemia; conditions: 6-hour reperfusion; 2 weeks 289 nmol/kg; P<0.05 compared to vehicle
Protocol: as §1, §2
Blood lactate. Blood lactate was determined using the Lactate Pro Analyser (FaCT Canada Consulting Ltd, Quesnel, BC, Canada), according to the manufacturer's instructions.

C57BL/6 mice [3] = experiment: Cardiac troponin I (cTnI) in plasma, ELISA; conditions: 48 hours post-ischemia; 2 weeks 289 nmol/kg; compared to vehicle
Protocol: as §1
as §2, with “At 6 hours following reperfusion, mice were anesthetized (isoflurane), a blood sample withdrawn, and the heart arrested in diastole by an intravenous injection of 1 M KCl (0.5 mL).” left out
Cardiac troponin I (cTnI) concentrations in plasma. cTnI plasma levels were assayed using the High Sensitivity Mouse Cardiac Troponin-I ELISA Kit (Life Diagnostics, Inc., West Chester, Pa., Cat. No. 2010-1-HSP), according to the manufacturer's instructions.

Row | Structure (SMILES) | reduction of infarct area ([1]; 2-week pretreatment, same drug regimen (300 μg/kg/d), CD36^+/+ mice, 48 hours reperfusion) [%] | area-at-risk ([1]; mouse, in vivo) | reduction of IA/LV ratios ([1]; mouse, in vivo) [%] | reduction of lactate concentration in blood (C57BL/6 mice [2]) [%] | reduction of cardiac troponin I (cTnI) levels in plasma (C57BL/6 mice [3]) [%] | area-at-risk ([1]; CD36^+/+ (C57BL/6) mice, 289 nmol/kg 2 weeks, 48 hours reperfusion, mean (±SE)) | reduction of IA/LV ratios ([1]; CD36^+/+ (C57BL/6) mice, 289 nmol/kg 2 weeks, 48 hours reperfusion, p<0.001 vs 0.9% NaCl) [%]
1 | C[C@H](N)C(=O)NN(Cc1ccccc1)C(=O)N[C@@H](C)C(=O)N[C@@H](Cc1c[nH]c2ccccc12)C(=O)N[C@H](Cc1ccccc1)C(=O)N[C@@H](CCCCN)C(N)=O [CP1A(IV), Ala-AzaPhe-Ala-Trp-DPhe-Lys-NH2] (H-A[azaPhe]AW[dF]K-NH2) | 49 |  |  |  |  |  | 
2 | C[C@H](N)C(=O)N[C@H](Cc1c[nH]c2ccccc12)C(=O)N[C@@H](C)C(=O)NN(Cc1ccccc1)C(=O)N[C@H](Cc1ccccc1)C(=O)N[C@@H](CCCCN)C(N)=O [CP-3(iv), Ala-D-Trp-Ala-AzaPhe-DPhe-Lys-NH2] (H-A[dW]A[azaPhe][dF]K-NH2) |  | 52 (±3) % | 56 | 27 | 42 |  | 
3 | NCCCC[C@H](NC(=O)[C@@H](Cc1ccccc1)NC(=O)[C@H](Cc1c[nH]c2ccccc12)NC(=O)N1CCCN1C(=O)[C@@H](Cc1c[nH]c2ccccc12)NC(=O)[C@@H](N)Cc1cnc[nH]1)C(N)=O [CP-AP-4, His-D-Trp-AzaPro-Trp-DPhe-Lys-NH2] (H-H[dW][azaPro]W[dF]K-NH2) |  |  |  | 32 | 54 | 50 (±4) % | 50
